According to the kinase profiling compilation of Christmann-Franck et al. (2016):

Legend:
Assay in all cases: KINOMEscan competition binding
Conditions in all cases: compound 1.0 µM
[1] = test system: FLT3 (human), P36888 [D835H]
[2] = target: EPHA8 (human) (UniProt P29322)
[3] = target: CDK11B (human) (UniProt P21127)
[4] = target: KIT (human) (UniProt P10721)
[5] = target: PRKG2 (human) (UniProt Q13237)
[6] = target: MKNK1 (human) (UniProt Q9BUB5)
[7] = target: ACVRL1 (human) (UniProt P37023)
[8] = target: DCLK2 (human) (UniProt Q8N568)
[9] = target: BRAF (human) (UniProt P15056)
[10] = target: MAP3K4 (human) (UniProt Q9Y6R4)
[11] = target: MYLK3 (human) (UniProt Q32MK0)
[12] = target: EPHA1 (human) (UniProt P21709)
[13] = target: EPHB4 (human) (UniProt P54760)
[14] = target: EIF2AK2 (human) (UniProt P19525)
[15] = target: DYRK1B (human) (UniProt Q9Y463)
[16] = target: EPHA7 (human) (UniProt Q15375)
[17] = target: FGFR2 (human) (UniProt P21802)
[18] = target: MAPK15 (human) (UniProt Q8TD08)
[19] = target: PIM1 (human) (UniProt P11309)
[20] = target: PDGFRA (human) (UniProt P16234)
[21] = target: MAP3K7 (human) (UniProt O43318)
[22] = target: KDR (human) (UniProt P35968)
[23] = target: ITK (human) (UniProt Q08881)
[24] = target: RPS6KA6 KD1 (human) (UniProt Q9UK32)
[25] = target: MINK1 (human) (UniProt Q8N4C8)
[26] = target: SRMS (human) (UniProt Q9H3Y6)
[27] = target: NEK5 (human) (UniProt Q6P3R8)
[28] = test system: PIK3CA (human), P42336 [M1043I]
[29] = target: HCK (human) (UniProt P08631)
[30] = target: BMPR1B (human) (UniProt O00238)
[31] = target: HIPK3 (human) (UniProt Q9H422)
[32] = target: AKT3 (human) (UniProt Q9Y243)
[33] = target: AAK1 (human) (UniProt Q2M2I8)
[34] = target: EPHB2 (human) (UniProt P29323)
[35] = target: STK33 (human) (UniProt Q9BYT3)
[36] = target: JAK1 JH2 pseudokinase (human) (UniProt P23458)
[37] = target: MAP4K2 (human) (UniProt Q12851)
[38] = test system: KIT (human), P10721 [V559D/V654A]
[39] = target: CDK5 (human) (UniProt Q00535)
[40] = target: PKN3 (M.tuberculosis) (UniProt Q6P5Z2)
[41] = test system: KIT (human), P10721 [D816H]
[42] = target: CAMK4 (human) (UniProt Q16566)
[43] = target: MUSK (human) (UniProt O15146)

Sequence of AAK1 (human) (Q2M2I8 whole entry, looked up): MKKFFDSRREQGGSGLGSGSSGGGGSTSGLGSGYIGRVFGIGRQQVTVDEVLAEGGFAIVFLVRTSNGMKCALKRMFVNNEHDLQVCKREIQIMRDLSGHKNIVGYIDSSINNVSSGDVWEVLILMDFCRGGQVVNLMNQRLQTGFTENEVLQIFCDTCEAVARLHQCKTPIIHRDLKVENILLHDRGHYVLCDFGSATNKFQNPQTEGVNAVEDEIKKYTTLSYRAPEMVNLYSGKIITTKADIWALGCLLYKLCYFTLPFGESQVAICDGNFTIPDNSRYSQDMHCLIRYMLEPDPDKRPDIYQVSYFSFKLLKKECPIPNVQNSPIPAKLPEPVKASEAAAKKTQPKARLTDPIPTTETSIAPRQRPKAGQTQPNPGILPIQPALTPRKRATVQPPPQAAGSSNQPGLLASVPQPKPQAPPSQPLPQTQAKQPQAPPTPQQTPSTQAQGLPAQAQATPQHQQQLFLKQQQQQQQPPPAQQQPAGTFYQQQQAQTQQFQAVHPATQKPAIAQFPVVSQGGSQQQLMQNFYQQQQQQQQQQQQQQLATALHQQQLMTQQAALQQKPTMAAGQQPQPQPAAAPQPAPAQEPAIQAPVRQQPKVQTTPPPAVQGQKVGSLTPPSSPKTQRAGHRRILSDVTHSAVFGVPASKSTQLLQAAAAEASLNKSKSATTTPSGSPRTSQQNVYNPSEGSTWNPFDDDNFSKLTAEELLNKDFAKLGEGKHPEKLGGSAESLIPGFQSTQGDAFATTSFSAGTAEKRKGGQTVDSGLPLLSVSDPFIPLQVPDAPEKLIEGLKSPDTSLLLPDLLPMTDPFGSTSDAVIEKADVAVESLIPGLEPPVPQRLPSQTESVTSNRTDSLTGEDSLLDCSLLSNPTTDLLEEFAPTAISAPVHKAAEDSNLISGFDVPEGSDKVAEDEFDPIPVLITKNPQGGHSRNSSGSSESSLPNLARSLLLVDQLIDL
Sequence of EPHA1 (human) (P21709 whole entry, looked up): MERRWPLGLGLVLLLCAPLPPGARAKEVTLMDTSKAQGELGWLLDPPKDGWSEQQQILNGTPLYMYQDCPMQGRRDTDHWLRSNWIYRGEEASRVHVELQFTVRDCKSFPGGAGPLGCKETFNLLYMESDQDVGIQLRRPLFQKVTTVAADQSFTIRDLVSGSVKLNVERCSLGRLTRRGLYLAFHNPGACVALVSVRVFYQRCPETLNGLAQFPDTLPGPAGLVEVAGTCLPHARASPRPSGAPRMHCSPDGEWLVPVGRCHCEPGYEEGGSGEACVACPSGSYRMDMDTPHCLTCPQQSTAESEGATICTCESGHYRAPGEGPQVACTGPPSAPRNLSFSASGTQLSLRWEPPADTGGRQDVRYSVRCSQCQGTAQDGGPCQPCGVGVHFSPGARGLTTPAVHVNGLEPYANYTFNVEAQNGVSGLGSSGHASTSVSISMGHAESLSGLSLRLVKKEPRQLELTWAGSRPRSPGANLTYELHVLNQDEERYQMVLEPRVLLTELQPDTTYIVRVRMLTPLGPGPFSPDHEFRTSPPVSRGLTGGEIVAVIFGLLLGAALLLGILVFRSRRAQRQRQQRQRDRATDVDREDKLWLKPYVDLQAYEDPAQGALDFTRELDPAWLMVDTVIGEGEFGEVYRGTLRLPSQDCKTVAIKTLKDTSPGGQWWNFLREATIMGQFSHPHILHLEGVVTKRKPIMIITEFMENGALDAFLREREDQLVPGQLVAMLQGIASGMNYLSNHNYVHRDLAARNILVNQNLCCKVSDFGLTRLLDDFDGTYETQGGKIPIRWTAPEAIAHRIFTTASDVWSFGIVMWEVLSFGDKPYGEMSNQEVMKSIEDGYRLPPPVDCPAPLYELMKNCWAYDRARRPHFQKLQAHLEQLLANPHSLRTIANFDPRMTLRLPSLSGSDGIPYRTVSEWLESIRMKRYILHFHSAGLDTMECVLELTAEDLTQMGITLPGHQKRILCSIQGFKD
Sequence of JAK1 JH2 pseudokinase (human) (P23458 whole entry, looked up): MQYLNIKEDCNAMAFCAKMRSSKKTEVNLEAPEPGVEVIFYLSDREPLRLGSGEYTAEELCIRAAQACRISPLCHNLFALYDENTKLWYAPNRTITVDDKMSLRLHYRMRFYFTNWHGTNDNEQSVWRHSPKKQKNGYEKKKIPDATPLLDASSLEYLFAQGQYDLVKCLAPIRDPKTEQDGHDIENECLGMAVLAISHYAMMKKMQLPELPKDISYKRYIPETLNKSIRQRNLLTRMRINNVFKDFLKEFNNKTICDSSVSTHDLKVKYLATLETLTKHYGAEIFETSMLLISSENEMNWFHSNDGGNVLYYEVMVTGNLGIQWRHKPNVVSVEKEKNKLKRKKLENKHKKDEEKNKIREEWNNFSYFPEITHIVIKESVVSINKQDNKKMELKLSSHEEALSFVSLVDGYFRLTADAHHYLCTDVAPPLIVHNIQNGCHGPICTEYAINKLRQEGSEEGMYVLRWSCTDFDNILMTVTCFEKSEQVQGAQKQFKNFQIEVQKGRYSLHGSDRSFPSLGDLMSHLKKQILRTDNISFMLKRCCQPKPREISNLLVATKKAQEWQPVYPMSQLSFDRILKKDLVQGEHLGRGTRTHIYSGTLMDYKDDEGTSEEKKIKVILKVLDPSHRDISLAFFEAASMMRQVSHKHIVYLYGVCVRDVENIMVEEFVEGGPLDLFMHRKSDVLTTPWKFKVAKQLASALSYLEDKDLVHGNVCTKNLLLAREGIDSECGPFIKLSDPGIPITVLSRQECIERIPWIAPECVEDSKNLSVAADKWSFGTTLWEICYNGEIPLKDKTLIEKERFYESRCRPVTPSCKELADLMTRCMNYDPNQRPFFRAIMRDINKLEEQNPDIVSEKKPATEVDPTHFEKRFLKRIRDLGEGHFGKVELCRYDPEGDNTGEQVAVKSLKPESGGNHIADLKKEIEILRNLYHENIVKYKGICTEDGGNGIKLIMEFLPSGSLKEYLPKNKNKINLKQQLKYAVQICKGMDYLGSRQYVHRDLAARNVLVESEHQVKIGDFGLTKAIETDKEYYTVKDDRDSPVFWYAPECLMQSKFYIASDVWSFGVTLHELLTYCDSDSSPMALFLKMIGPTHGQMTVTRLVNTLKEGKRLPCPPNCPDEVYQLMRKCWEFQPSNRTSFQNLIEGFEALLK
Sequence of ACVRL1 (human) (P37023 whole entry, looked up): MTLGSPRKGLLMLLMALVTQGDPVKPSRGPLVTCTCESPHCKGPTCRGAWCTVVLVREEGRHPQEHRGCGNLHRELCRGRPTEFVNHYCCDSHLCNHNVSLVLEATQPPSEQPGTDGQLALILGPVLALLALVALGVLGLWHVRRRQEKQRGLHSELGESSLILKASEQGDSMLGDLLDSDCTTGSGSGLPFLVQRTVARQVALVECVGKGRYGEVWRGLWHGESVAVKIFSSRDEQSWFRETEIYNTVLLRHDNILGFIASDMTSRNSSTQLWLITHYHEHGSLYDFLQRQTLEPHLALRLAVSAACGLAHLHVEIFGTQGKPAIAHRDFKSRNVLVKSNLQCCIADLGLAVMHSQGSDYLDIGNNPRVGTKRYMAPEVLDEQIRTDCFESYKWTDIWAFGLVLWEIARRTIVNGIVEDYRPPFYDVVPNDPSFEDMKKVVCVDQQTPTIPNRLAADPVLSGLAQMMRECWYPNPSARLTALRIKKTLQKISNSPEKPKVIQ
Sequence of PKN3 (M.tuberculosis) (Q6P5Z2 whole entry, looked up): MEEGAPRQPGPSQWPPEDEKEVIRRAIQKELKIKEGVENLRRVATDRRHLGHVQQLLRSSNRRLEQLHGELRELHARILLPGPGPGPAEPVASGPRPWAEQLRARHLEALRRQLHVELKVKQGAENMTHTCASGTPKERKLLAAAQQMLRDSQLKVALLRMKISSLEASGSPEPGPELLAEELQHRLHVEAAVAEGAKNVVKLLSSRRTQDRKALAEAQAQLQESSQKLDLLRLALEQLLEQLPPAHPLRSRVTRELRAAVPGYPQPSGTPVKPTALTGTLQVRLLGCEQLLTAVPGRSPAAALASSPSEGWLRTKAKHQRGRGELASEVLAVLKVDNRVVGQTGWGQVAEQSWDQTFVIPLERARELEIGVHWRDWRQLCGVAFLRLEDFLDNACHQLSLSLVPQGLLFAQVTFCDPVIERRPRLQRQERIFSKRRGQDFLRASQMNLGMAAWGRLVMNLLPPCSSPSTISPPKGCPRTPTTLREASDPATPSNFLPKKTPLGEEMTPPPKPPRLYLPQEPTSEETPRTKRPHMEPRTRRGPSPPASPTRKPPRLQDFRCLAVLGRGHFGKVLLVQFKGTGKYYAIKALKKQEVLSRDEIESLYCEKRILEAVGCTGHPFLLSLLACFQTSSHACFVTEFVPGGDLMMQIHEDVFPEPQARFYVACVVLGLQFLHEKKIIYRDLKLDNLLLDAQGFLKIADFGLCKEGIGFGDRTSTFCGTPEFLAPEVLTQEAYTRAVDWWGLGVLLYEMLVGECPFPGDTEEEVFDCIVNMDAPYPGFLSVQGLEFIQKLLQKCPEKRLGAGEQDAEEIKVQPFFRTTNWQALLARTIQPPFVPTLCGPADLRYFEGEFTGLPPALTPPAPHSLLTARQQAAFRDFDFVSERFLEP
Sequence of SRMS (human) (Q9H3Y6 whole entry, looked up): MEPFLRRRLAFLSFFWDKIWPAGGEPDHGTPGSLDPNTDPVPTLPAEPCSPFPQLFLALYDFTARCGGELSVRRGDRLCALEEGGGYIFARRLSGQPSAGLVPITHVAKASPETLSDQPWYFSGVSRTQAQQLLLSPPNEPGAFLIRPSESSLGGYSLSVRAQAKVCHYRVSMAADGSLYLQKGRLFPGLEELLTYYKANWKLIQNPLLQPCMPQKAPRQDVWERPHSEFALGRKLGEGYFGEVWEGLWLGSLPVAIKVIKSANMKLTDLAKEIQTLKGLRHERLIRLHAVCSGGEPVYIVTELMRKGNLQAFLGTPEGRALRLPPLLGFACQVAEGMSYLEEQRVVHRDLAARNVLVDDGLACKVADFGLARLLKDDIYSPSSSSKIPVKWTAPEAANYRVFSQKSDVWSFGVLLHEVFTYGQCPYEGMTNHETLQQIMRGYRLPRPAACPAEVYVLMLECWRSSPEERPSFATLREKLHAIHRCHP

SMILES: Cc1cc(NC(=O)c2cccc(NC(=O)/C=C/CN(C)C)c2)ccc1Nc1nccc(-c2cccnc2)n1
- kinase still bound, per cent of control [1]: 82%
- kinase still bound, per cent of control [2]: 100%
- kinase still bound, per cent of control [3]: 100%
- kinase still bound, per cent of control [4]: 3.5%
- kinase still bound, per cent of control [5]: 97%
- kinase still bound, per cent of control [6]: 81%
- kinase still bound, per cent of control [7]: 96%
- kinase still bound, per cent of control [8]: 94%
- kinase still bound, per cent of control [9]: 90%
- kinase still bound, per cent of control [10]: 100%
- kinase still bound, per cent of control [11]: 100%
- kinase still bound, per cent of control [12]: 99%
- kinase still bound, per cent of control [13]: 100%
- kinase still bound, per cent of control [14]: 82%
- kinase still bound, per cent of control [15]: 100%
- kinase still bound, per cent of control [16]: 100%
- kinase still bound, per cent of control [17]: 79%
- kinase still bound, per cent of control [18]: 100%
- kinase still bound, per cent of control [19]: 100%
- kinase still bound, per cent of control [20]: 71%
- kinase still bound, per cent of control [21]: 61%
- kinase still bound, per cent of control [22]: 96%
- kinase still bound, per cent of control [23]: 100%
- kinase still bound, per cent of control [24]: 100%
- kinase still bound, per cent of control [25]: 71%
- kinase still bound, per cent of control [26]: 94%
- kinase still bound, per cent of control [27]: 92%
- kinase still bound, per cent of control [28]: 94%
- kinase still bound, per cent of control [29]: 100%
- kinase still bound, per cent of control [30]: 92%
- kinase still bound, per cent of control [31]: 100%
- kinase still bound, per cent of control [32]: 100%
- kinase still bound, per cent of control [33]: 69%
- kinase still bound, per cent of control [34]: 100%
- kinase still bound, per cent of control [35]: 100%
- kinase still bound, per cent of control [36]: 91%
- kinase still bound, per cent of control [37]: 67%
- kinase still bound, per cent of control [38]: 81%
- kinase still bound, per cent of control [39]: 100%
- kinase still bound, per cent of control [40]: 100%
- kinase still bound, per cent of control [41]: 68%
- kinase still bound, per cent of control [42]: 100%
- kinase still bound, per cent of control [43]: 100%

SMILES: CN(C)C/C=C/C(=O)Nc1cccc(C(=O)Nc2ccc(Nc3nccc(-c4cccnc4)n3)cc2)c1
- kinase still bound, per cent of control [1]: 29%
- kinase still bound, per cent of control [2]: 90%
- kinase still bound, per cent of control [3]: 71%
- kinase still bound, per cent of control [4]: 2.4%
- kinase still bound, per cent of control [5]: 82%
- kinase still bound, per cent of control [6]: 100%
- kinase still bound, per cent of control [7]: 100%
- kinase still bound, per cent of control [8]: 100%
- kinase still bound, per cent of control [9]: 95%
- kinase still bound, per cent of control [10]: 88%
- kinase still bound, per cent of control [11]: 85%
- kinase still bound, per cent of control [12]: 95%
- kinase still bound, per cent of control [13]: 100%
- kinase still bound, per cent of control [14]: 53%
- kinase still bound, per cent of control [15]: 52%
- kinase still bound, per cent of control [16]: 86%
- kinase still bound, per cent of control [17]: 67%
- kinase still bound, per cent of control [18]: 7.1%
- kinase still bound, per cent of control [19]: 94%
- kinase still bound, per cent of control [20]: 67%
- kinase still bound, per cent of control [21]: 34%
- kinase still bound, per cent of control [22]: 100%
- kinase still bound, per cent of control [23]: 85%
- kinase still bound, per cent of control [24]: 88%
- kinase still bound, per cent of control [25]: 37%
- kinase still bound, per cent of control [26]: 100%
- kinase still bound, per cent of control [27]: 7.8%
- kinase still bound, per cent of control [28]: 74%
- kinase still bound, per cent of control [29]: 100%
- kinase still bound, per cent of control [30]: 43%
- kinase still bound, per cent of control [31]: 5.7%
- kinase still bound, per cent of control [32]: 100%
- kinase still bound, per cent of control [33]: 18%
- kinase still bound, per cent of control [34]: 90%
- kinase still bound, per cent of control [35]: 93%
- kinase still bound, per cent of control [36]: 8.6%
- kinase still bound, per cent of control [37]: 9.9%
- kinase still bound, per cent of control [38]: 67%
- kinase still bound, per cent of control [39]: 89%
- kinase still bound, per cent of control [40]: 69%
- kinase still bound, per cent of control [41]: 42%
- kinase still bound, per cent of control [42]: 100%
- kinase still bound, per cent of control [43]: 94%
